Experimental data reported in paper PMC7217877, “N-AS-triggered SPMs are direct regulators of microglia in a model of Alzheimer’s disease” (Nature Communications, 2020).
“And” between values parts separate entries of the source, which are not always exact repeats. Equal values may be shown once.

Assays:
Format in all cases: in vivo, mouse
APP/PS1 mice [1] = assay: N-AS level in microglia and neuron isolated from treated mice (LC-MS/MS, Fig 4b); conditions: N-AS 30 mg kg^-1 daily s.c. 8 weeks, individual values
Protocol: Reactions were quenched by adding equal volume of cold methanol. A 100 μl aliquot of the reaction mixture was mixed with 30 μl of distilled water containing 5 ng ml^−1 of furosemide (internal standard) for 1 min and vigorously mixed with […] of ethyl acetate for 20 min. After centrifugation at 16,000×g for 10 min, the mixtures were kept for 2 h for freezing aqueous phase. The upper ethyl acetate layer was transferred to a clean tube and evaporated to dryness under a gentle stream of nitrogen. Then, the dried extract was reconstituted in 100 µl of mobile phase and 10 µl aliquot of the solution was injected into an Agilent 6470 Triple Quad LC–MS/MS system (Agilent, Wilmington, DE) coupled with an Agilent 1260 HPLC system. […] Quantification was carried out using multiple reaction monitoring (MRM) at m/z 340.3→263.3 for N-AS and m/z 328.9→284.8 for furosemide (internal standard) in negative ionization mode and collision energy of 20 eV. […]
Adult neurons and microglia were isolated from the mice brain as previously described. […] The purity of the fractionated neurons and microglia were acutely confirmed by neuronal (NeuN, mouse, 1:200, Millipore, MAB377) and microglial (Iba1, rabbit, 1:1000, Wako, 019-19941) markers and the isolated neurons and microglia were acutely analyzed for the acetylation assay and lipid mediators metabololipidomics. […]

5×FAD mice = assay: western blot of synaptophysin, MAP2, synapsin1, PSD95 (Supplementary Fig 8f-i); set-up: synaptophysin (western blot) / MAP2 (western blot) / synapsin1 (western blot): scale not given here
Protocol: Samples were lysed in RIPA buffer (Cell signaling Technologies), then subjected to SDS-PAGE and transferred to a nitrocellulose membrane. Membranes were blocked with 5% milk, incubated with primary antibody and then incubated with the appropriate horseradish peroxidase-conjugated secondary antibody. […] We performed densitometric quantification using the ImageJ software (National Institutes of Health). Images have been cropped for presentation.
(§1) Transgenic mouse lines over-expressing the hAPP695swe (APP) and presenilin-1M146V (PS1) mutations were originated from GlaxoSmithKline (Harlow, UK)[32] and maintained as described previously. We purchased 5×FAD mice from Jackson Labs (Stock number. 34840-JAX). Because APP/PS1 and 5xFAD mice show sex differences in disease progression, we used only male mice. To examine possible therapeutic effect of N-AS and aspirin in APP/PS1 mice, the N-AS (30 mg kg^−1, Sigma-Aldrich, 01912) was injected daily s.c. for 8 weeks to 7-months-old APP/PS1 mice until the age of 9 months, and aspirin (2 mg kg^−1, Sigma-Aldrich, A5376)[33] was administrated orally to 7-months-old APP/PS1 mice for 8 weeks. Also, to confirm possible therapeutic efficacy of N-AS in 5×FAD, the N-AS (30 mg kg^−1, Sigma-Aldrich, 01912) was injected daily s.c. for 4 weeks to 3-months-old 5×FAD mice until the age of 4 months. Block randomization method was used to allocate the animals to experimental groups. To eliminate the bias, we were blinded in experimental progress such as data collection and data analysis. Mice were housed at temperature of 22 °C and a 12 h day/12 h night cycle with free access to tap water and food pellets. All protocols were approved by the Kyungpook National University Institutional Animal Care and Use Committee.

APP/PS1 mice [2] = assay: ELISA of Aβ40 and Aβ42 in cortex (Fig 6e); set-up: Ab 40 (ELISA, Figure 6e) / Ab 42 (ELISA, Figure 6e): unit not given beside the values
Protocol: For measurement of Aβ40 and Aβ42, we used commercially available ELISA kits (Invitrogen, KHB3481, and KHB3441). Cortex of mice was homogenized in buffer containing […] guanidine. ELISA was then performed for Aβ40 and Aβ42 according to the manufacturer’s instructions.
as §1

[3] = APP/PS1 + N-AS, individual animals

CCCCCCCCCCCCC/C=C/[C@@H](O)[C@H](CO)NC(C)=O [N-AS, N-((2S,3R,E)-1,3-Dihydroxyoctadec-4-en-2-yl)acetamide]
N-AS quantification (Fig 4b) (APP/PS1 mice [1]; Microglia of APP/PS1 mice): 8.217 and 7.5949 and 7.58 and 7.906 and 7.587 and 7.743
N-AS quantification (Fig 4b) (APP/PS1 mice [1]; Neuron of APP/PS1 mice): 2.188 and 3.557 and 2.872 (3×) and 3.215
synaptophysin (western blot) (5×FAD mice; 5xFAD+N-AS, sFig 8f (sheet untitled)): 4.053 and 6.357 and 5.065 and 6.083 and 5.205 and 5.711
MAP2 (western blot) (5×FAD mice; 5xFAD+N-AS, sFig 8g (sheet untitled)): 2.523 and 3.013 and 3.332 and 2.975 and 2.768 and 3.172
PSD95 (western blot) (5×FAD mice; 5xFAD+N-AS, sFig 8i (sheet untitled)): 1.388 and 2.072 and 1.927 and 1.53 and 1.73 and 1.999
synapsin1 (western blot) (5×FAD mice; 5xFAD+N-AS, sFig 8h (sheet untitled)): 3.576 and 2.661 and 2.523 and 3.332 and 3.119 and 2.592
synapse activity (5×FAD mice; 5×FAD, N-AS 30 mg kg^-1 daily s.c. 4 weeks): similarly improved AD pathology of 5×FAD mice
Ab 40 (ELISA, Figure 6e) (APP/PS1 mice [2]; [3]): 1042.75 and 892.25 and 1044 and 676.5 and 692.5 and 668.75 and 689.75 and 1124
Ab 42 (ELISA, Figure 6e) (APP/PS1 mice [2]; [3]): 921.303 and 908.818 and 878.061 and 828.152 and 906.333 and 894.303 and 859.97 and 905.879
Aβ levels by ELISA of Aβ40 and Aβ42 (APP/PS1 mice [2]; N-AS vs vehicle APP/PS1): significantly lower Aβ levels
